Laboratory results: patent US20050118290A1, “Compositions and method for treatment of steroid/nuclear receptor-mediated diseases” (University of Singapore, priority 2003, published 2005)

Assays:
human androgen receptor = biological target: T1, human androgen receptor (Homo sapiens, UniProt P10275); test: AR (ARE)2-Luc luciferase reporter gene assay in HeLa cells; assay type: cell-based
T1 construct: expressed in transfected cells; host or cells: HeLa
T1 sequence (P10275 1-920): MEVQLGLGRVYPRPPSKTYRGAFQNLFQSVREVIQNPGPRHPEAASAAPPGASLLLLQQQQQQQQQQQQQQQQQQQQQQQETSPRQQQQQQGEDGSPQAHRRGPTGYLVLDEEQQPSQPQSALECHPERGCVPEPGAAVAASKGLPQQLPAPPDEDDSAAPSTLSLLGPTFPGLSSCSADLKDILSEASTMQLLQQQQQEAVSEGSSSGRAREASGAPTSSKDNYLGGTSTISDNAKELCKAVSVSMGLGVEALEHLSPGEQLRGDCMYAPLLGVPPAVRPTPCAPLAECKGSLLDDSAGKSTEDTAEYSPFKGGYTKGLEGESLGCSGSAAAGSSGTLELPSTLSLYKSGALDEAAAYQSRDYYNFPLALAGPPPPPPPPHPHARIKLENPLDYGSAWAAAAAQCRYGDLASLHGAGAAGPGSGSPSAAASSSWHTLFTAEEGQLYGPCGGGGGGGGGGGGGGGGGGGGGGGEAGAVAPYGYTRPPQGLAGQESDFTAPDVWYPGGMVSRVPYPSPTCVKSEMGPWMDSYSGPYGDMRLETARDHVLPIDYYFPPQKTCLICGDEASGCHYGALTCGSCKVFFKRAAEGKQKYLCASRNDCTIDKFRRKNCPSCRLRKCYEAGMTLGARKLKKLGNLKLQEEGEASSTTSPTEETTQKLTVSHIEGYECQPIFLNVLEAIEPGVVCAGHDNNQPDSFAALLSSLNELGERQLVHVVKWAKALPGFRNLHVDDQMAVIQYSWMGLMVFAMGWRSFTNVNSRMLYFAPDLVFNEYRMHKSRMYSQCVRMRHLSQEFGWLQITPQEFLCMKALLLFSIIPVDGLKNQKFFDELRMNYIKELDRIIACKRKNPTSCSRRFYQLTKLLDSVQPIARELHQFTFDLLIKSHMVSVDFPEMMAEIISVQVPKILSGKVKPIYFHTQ
Protocol: (§1) The capacity of HQ extract to activate other steroid receptors, namely AR, PR, GR, ERα and ERβ was examined. […] The (ARE)2-Luc plasmid consist of two repeats of Androgen Response Element (ARE) cloned upstream of the Luciferase Reporter gene in a pGL3-Basic vector (Promega).
(§2) AR, PR, GR and ERα and […] were determined by comparing luciferase activity in test cells with control cells exposed to vehicle (i.e., ethanol or methanol) only, analogous to the determination of PPAR activity as described in the previous examples.

Progesterone Receptor = biological target: T2, Progesterone Receptor (Homo sapiens, UniProt P06401); test: PR (ARE)2-Luc luciferase reporter gene assay; assay type: cell-based
T2 construct: expressed in transfected cells; host or cells: HeLa (named for the formononetin and daidzein experiments)
T2 sequence (P06401 1-933): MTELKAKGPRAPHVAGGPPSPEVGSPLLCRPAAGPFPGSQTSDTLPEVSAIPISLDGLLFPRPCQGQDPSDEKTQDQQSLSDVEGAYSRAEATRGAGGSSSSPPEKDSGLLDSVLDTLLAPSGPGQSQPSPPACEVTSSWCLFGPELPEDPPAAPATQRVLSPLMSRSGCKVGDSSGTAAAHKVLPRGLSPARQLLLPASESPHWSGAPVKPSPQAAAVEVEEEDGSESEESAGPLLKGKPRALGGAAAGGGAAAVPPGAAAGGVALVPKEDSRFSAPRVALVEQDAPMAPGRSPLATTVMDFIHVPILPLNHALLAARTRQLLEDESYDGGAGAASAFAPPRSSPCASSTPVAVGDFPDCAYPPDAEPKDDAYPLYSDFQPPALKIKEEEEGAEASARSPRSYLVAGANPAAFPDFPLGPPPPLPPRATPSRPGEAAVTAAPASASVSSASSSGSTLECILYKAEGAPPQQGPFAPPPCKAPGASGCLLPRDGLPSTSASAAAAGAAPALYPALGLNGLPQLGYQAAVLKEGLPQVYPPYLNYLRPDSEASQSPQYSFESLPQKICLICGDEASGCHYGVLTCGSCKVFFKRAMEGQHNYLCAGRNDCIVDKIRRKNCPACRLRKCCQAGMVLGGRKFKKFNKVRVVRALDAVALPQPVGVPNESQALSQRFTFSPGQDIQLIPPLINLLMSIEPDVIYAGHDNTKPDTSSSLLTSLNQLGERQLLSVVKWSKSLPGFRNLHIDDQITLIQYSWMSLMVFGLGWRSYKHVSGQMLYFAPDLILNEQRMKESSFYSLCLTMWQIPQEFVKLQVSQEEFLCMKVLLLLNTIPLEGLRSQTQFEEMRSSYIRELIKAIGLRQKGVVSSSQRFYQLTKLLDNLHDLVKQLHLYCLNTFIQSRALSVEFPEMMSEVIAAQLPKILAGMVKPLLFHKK
Protocol: as §1, §2

Row | Luciferase activity (Fold over vehicle ± SE) AR/Dihydrotestosterone (1 × 10^−9M) (human androgen receptor; calycosin 3 ×10^−6 g/mL) [Fold] | Luciferase activity (Fold over vehicle ± SE) AR/Dihydrotestosterone (1 × 10^−9M) (human androgen receptor; calycosin 10 ×10^−6 g/mL) [Fold] | Luciferase activity (Fold over vehicle ± SE) AR/Dihydrotestosterone (1 × 10^−9M) (human androgen receptor; calycosin 30 ×10^−6 g/mL) [Fold] | increase of the activity of maximal doses of AR agonist (human androgen receptor; with dihydrotestosterone 1×10^−9M) [fold] | Luciferase activity (Fold over vehicle ± SE) PR/Progesterone (10 × 10^−6M) (Progesterone Receptor; calycosin 3 ×10^−6 g/mL) [Fold] | Luciferase activity (Fold over vehicle ± SE) PR/Progesterone (10 × 10^−6M) (Progesterone Receptor; calycosin 10 ×10^−6 g/mL) [Fold] | Luciferase activity (Fold over vehicle ± SE) PR/Progesterone (10 × 10^−6M) (Progesterone Receptor; calycosin 30 ×10^−6 g/mL) [Fold] | increase of the activity of maximal doses of PR agonist (Progesterone Receptor; with progesterone 10×10^−6M) [fold] | Luciferase activity (Fold over vehicle ± SE) AR/Dihydrotestosterone (1 × 10^−9M) (human androgen receptor; daidzein 5 ×10^−6 g/mL) [Fold] | Luciferase activity (Fold over vehicle ± SE) AR/Dihydrotestosterone (1 × 10^−9M) (human androgen receptor; daidzein 10 ×10^−6 g/mL) [Fold] | Luciferase activity (Fold over vehicle ± SE) AR/Dihydrotestosterone (1 × 10^−9M) (human androgen receptor; daidzein 20 ×10^−6 g/mL) [Fold] | Luciferase activity (Fold over vehicle ± SE) PR/Progesterone (10 × 10^−9M) (Progesterone Receptor; daidzein 5 ×10^−6 g/mL) [Fold] | Luciferase activity (Fold over vehicle ± SE) PR/Progesterone (10 × 10^−9M) (Progesterone Receptor; daidzein 10 ×10^−6 g/mL) [Fold] | Luciferase activity (Fold over vehicle ± SE) PR/Progesterone (10 × 10^−9M) (Progesterone Receptor; daidzein 20 ×10^−6 g/mL) [Fold] | SMILES
1 | 1997 ± 96.1 | 4080 ± 5.67 | 4502 ± 995 | 5.8 | 1077 ± 43.4 | 943 ± 44.0 | 837 ± 115 | 1.8 | – | – | – | – | – | – | COc1ccc(-c2coc3cc(O)ccc3c2=O)cc1O [calycosin, 3′,7-Dihydroxy-4′-methoxyisoflavone]
2 | – | – | – | – | – | – | – | – | 1703 ± 154 | 1684 ± 146 | 1547 ± 257 | 569 ± 84.0 | 607 ± 90.6 | 326 ± 65.8 | O=c1c(-c2ccc(O)cc2)coc2cc(O)ccc12 [daidzein]
